Results on 13 compounds are retold here after US9499550B2 (BRISTOL-MYERS SQUIBB COMPANY, priority 2012, dated 2016).

For orientation: EC50 means the concentration needed to bring the measured effect to its halfway point.

Assay [1] relates to HCV genotype 1b (Con1) replicon in HUH-7 cells. Description: HCV replicon luciferase reporter assay, genotype 1b. In kind it is cell-based. The note with it: Hepatitis C virus, Huh-7, 72 h, HCV genotype 1b replicon luciferase, 3 days incubation. The method in brief:
(§1)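 Replicon inhibition for both genotypes was measured as Renilla luciferase signal (EnduRen, 7.5 μM final, 2 h) after 3-day, 37° C exposure of replicon-bearing HUH-7 cells in 4% FCS DMEM, 0.5% DMSO. The 1b construct carries S1179I; the 1a H77 construct carries P1496L and S2204I. Twenty-point, 3-fold dilutions were fitted four-parametrically for EC50, and CC50 was taken from multiplexed Cell Titer-Blue.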
(A replicon is a self-replicating genome or part of one, used to study replication in cells.)

Assay [2] concerns HCV genotype 1a (H77 strain) replicon in HUH-7 cells. Description: HCV replicon luciferase reporter assay, genotype 1a. In kind it is cell-based. The note with it: Hepatitis C virus, Huh-7, 72 h, HCV genotype 1a replicon luciferase, 3 days incubation. Summed up: as §1

Like-named read-outs stand apart in the source and are kept apart here. Some results are limits rather than exact numbers.

Regarding `CCn1nc(O[C@@H]2C[C@H]3C(=O)N[C@]4(C(=O)NS(=O)(=O)C5(C)CC5)C[C@H]4/C=C\CC[C@@H](C)C[C@@H](C)[C@H](NC(=O)O[C@@H]4C[C@@H]5C[C@@H]5C4)C(=O)N3C2)c2ccccc2c1=O` [Compound 5057, (1R,3r,5S)-bicyclo[3.1.0]hexan-3-yl((2R,6S,7R,9R,13aS,14aR,16aS,Z)-2-((3-ethyl-4-oxo-3,4-dihydrophthalazin-1-yl)oxy)-7,9-dimethyl-14a-(((1-methylcyclopropyl)sulfonyl)carbamoyl)-5,16-dioxo-1,2,3,5,6,7,8,9,10,11,13a,14,14a,15,16,16a-hexadecahydrocyclopropa[e]pyrrolo[1,2-a][1,4]diazacyclopentadecin-6-yl)carbamate], the EC50 is less than 5.46 nM in assay [1] (read-out: LE_1b (EC50, range)) and less than 5.46 nM in assay [2] (read-out: LE_1a (EC50, range)).

For the compound `CCn1nc(O[C@@H]2C[C@H]3C(=O)N[C@]4(C(=O)NS(=O)(=O)C5(C)CC5)C[C@H]4/C=C\CC[C@H](C)C[C@@H](C)[C@H](NC(=O)NC(C)(C)C)C(=O)N3C2)c2ccccc2c1=O` [Compound 5058, (2R,6S,7R,9S,13aS,14aR,16aS,Z)-6-(3-(tert-butyl)ureido)-2-((3-ethyl-4-oxo-3,4-dihydrophthalazin-1-yl)oxy)-7,9-dimethyl-N-((1-methylcyclopropyl)sulfonyl)-5,16-dioxo-1,2,3,5,6,7,8,9,10,11,13a,14,14a,15,16,16a-hexadecahydrocyclopropa[e]pyrrolo[1,2-a][1,4]diazacyclopentadecine-14a-carboxamide], the EC50 is greater than 87.4 nM in assay [1] (read-out: LE_1b (EC50, range)) and greater than 87.4 nM in assay [2] (read-out: LE_1a (EC50, range)).

For `CCn1nc(O[C@@H]2C[C@H]3C(=O)N[C@]4(C(=O)NS(=O)(=O)C5(C)CC5)C[C@H]4/C=C\CC[C@@H](C)C[C@@H](C)[C@H](NC(=O)NC(C)(C)C)C(=O)N3C2)c2ccccc2c1=O` [Compound 5059, (2R,6S,7R,9R,13aS,14aR,16aS,Z)-6-(3-(tert-butyl)ureido)-2-((3-ethyl-4-oxo-3,4-dihydrophthalazin-1-yl)oxy)-7,9-dimethyl-N-((1-methylcyclopropyl)sulfonyl)-5,16-dioxo-1,2,3,5,6,7,8,9,10,11,13a,14,14a,15,16,16a-hexadecahydrocyclopropa[e]pyrrolo[1,2-a][1,4]diazacyclopentadecine-14a-carboxamide], the EC50 in assay [1] (read-out: LE_1b (EC50, range)) was 4.82 to 103 nM; in assay [2] (read-out: LE_1a (EC50, range)), 4.82 to 103 nM.

For `CCn1nc(O[C@@H]2C[C@H]3C(=O)N[C@]4(C(=O)NS(=O)(=O)C5(C)CC5)C[C@H]4/C=C\CC[C@H](C)C[C@@H](C)[C@H](NC(=O)c4ccc(N(C)C)cc4)C(=O)N3C2)c2ccccc2c1=O` [Compound 5060, (2R,6S,7R,9S,13aS,14aR,16aS,Z)-6-(4-(dimethylamino)benzamido)-2-((3-ethyl-4-oxo-3,4-dihydrophthalazin-1-yl)oxy)-7,9-dimethyl-N-((1-methylcyclopropyl)sulfonyl)-5,16-dioxo-1,2,3,5,6,7,8,9,10,11,13a,14,14a,15,16,16a-hexadecahydrocyclopropa[e]pyrrolo[1,2-a][1,4]diazacyclopentadecine-14a-carboxamide], the EC50 was 950 nM in assay [1] (read-out: LE_1b (EC50)); greater than 87.4 nM in assay [1] (read-out: LE_1b (EC50, range)); no less than 1000 nM in assay [2] (read-out: LE_1a (EC50)); greater than 87.4 nM in assay [2] (read-out: LE_1a (EC50, range)).

Consider `CCn1nc(O[C@@H]2C[C@H]3C(=O)N[C@]4(C(=O)NS(=O)(=O)C5(C)CC5)C[C@H]4/C=C\CC[C@@H](C)C[C@@H](C)[C@H](NC(=O)c4ccc(N(C)C)cc4)C(=O)N3C2)c2ccccc2c1=O` [Compound 5061, (2R,6S,7R,9R,13aS,14aR,16aS,Z)-6-(4-(dimethylamino)benzamido)-2-((3-ethyl-4-oxo-3,4-dihydrophthalazin-1-yl)oxy)-7,9-dimethyl-N-((1-methylcyclopropyl)sulfonyl)-5,16-dioxo-1,2,3,5,6,7,8,9,10,11,13a,14,14a,15,16,16a-hexadecahydrocyclopropa[e]pyrrolo[1,2-a][1,4]diazacyclopentadecine-14a-carboxamide], for which the EC50 is 4.82 to 103 nM in assay [1] (read-out: LE_1b (EC50, range)) and 4.82 to 103 nM in assay [2] (read-out: LE_1a (EC50, range)).

`CCn1nc(O[C@@H]2C[C@H]3C(=O)N[C@]4(C(=O)NS(=O)(=O)C5(C)CC5)C[C@H]4/C=C\CC[C@H](C)C[C@@H](C)[C@H](NC(=O)C(=O)N(C)C)C(=O)N3C2)c2ccccc2c1=O` [Compound 5062, N1-((2R,6S,7R,9S,13aS,14aR,16aS,Z)-2-((3-ethyl-4-oxo-3,4-dihydrophthalazin-1-yl)oxy)-7,9-dimethyl-14a-(((1-methylcyclopropyl)sulfonyl)carbamoyl)-5,16-dioxo-1,2,3,5,6,7,8,9,10,11,13a,14,14a,15,16,16a-hexadecahydrocyclopropa[e]pyrrolo[1,2-a][1,4]diazacyclopentadecin-6-yl)-N2,N2-dimethyloxalamide]: the EC50 in assay [1] (read-out: LE_1b (EC50)) is 1000 nM; in assay [1] (read-out: LE_1b (EC50, range)) it was greater than 87.4 nM; in assay [2] (read-out: LE_1a (EC50)), no less than 1000 nM; in assay [2] (read-out: LE_1a (EC50, range)), greater than 87.4 nM.

Regarding `CCn1nc(O[C@@H]2C[C@H]3C(=O)N[C@]4(C(=O)NS(=O)(=O)C5(C)CC5)C[C@H]4/C=C\CC[C@@H](C)C[C@@H](C)[C@H](NC(=O)C(=O)N(C)C)C(=O)N3C2)c2ccccc2c1=O` [Compound 5063, N1-((2R,6S,7R,9R,13aS,14aR,16aS,Z)-2-((3-ethyl-4-oxo-3,4-dihydrophthalazin-1-yl)oxy)-7,9-dimethyl-14a-(((1-methylcyclopropyl)sulfonyl)carbamoyl)-5,16-dioxo-1,2,3,5,6,7,8,9,10,11,13a,14,14a,15,16,16a-hexadecahydrocyclopropa[e]pyrrolo[1,2-a][1,4]diazacyclopentadecin-6-yl)-N2,N2-dimethyloxalamide], the EC50 in assay [1] (read-out: LE_1b (EC50)) is 479 nM; in assay [1] (read-out: LE_1b (EC50, range)), greater than 87.4 nM; in assay [2] (read-out: LE_1a (EC50)), no less than 1000 nM; in assay [2] (read-out: LE_1a (EC50, range)), greater than 87.4 nM.

`CCn1nc(O[C@@H]2C[C@H]3C(=O)N[C@]4(C(=O)NS(=O)(=O)C5(C)CC5)C[C@H]4/C=C\CC[C@H](C)C[C@@H](C)[C@H](NC(=O)OC(C)(C)C)C(=O)N3C2)c2ccccc2c1=O` [Compound 5064, tert-butyl ((2R,6S,7R,9S,13aS,14aR,16aS,Z)-2-((3-ethyl-4-oxo-3,4-dihydrophthalazin-1-yl)oxy)-7,9-dimethyl-14a-(((1-methylcyclopropyl)sulfonyl)carbamoyl)-5,16-dioxo-1,2,3,5,6,7,8,9,10,11,13a,14,14a,15,16,16a-hexadecahydrocyclopropa[e]pyrrolo[1,2-a][1,4]diazacyclopentadecin-6-yl)carbamate]: the EC50 in assay [1] (read-out: LE_1b (EC50, range)) was 4.82 to 103 nM; in assay [2] (read-out: LE_1a (EC50, range)) it was greater than 87.4 nM.

With `CCn1nc(O[C@@H]2C[C@H]3C(=O)N[C@]4(C(=O)NS(=O)(=O)C5(C)CC5)C[C@H]4/C=C\CC[C@@H](C)C[C@@H](C)[C@H](NC(=O)OC(C)(C)C)C(=O)N3C2)c2ccccc2c1=O` [Compound 5065, tert-butyl ((2R,6S,7R,9R,13aS,14aR,16aS,Z)-2-((3-ethyl-4-oxo-3,4-dihydrophthalazin-1-yl)oxy)-7,9-dimethyl-14a-(((1-methylcyclopropyl)sulfonyl)carbamoyl)-5,16-dioxo-1,2,3,5,6,7,8,9,10,11,13a,14,14a,15,16,16a-hexadecahydrocyclopropa[e]pyrrolo[1,2-a][1,4]diazacyclopentadecin-6-yl)carbamate], the EC50 in assay [1] (read-out: LE_1b (EC50, range)) is less than 5.46 nM; in assay [2] (read-out: LE_1a (EC50, range)), 4.82 to 103 nM.

Take `CCn1nc(O[C@@H]2C[C@H]3C(=O)N[C@]4(C(=O)NS(=O)(=O)C5CC5)C[C@H]4/C=C\CC[C@H](C)C[C@@H](C)[C@H](NC(=O)OC(C)(C)C(F)(F)F)C(=O)N3C2)c2ccccc2c1=O` [Compound 5066, 1,1,1-trifluoro-2-methylpropan-2-yl((2R,6S,7R,9S,13aS,14aR,16aS,Z)-14a-((cyclopropylsulfonyl)carbamoyl)-2-((3-ethyl-4-oxo-3,4-dihydrophthalazin-1-yl)oxy)-7,9-dimethyl-5,16-dioxo-1,2,3,5,6,7,8,9,10,11,13a,14,14a,15,16,16a-hexadecahydrocyclopropa[e]pyrrolo[1,2-a][1,4]diazacyclopentadecin-6-yl)carbamate]: the 50% effective concentration (EC50) in assay [1] (read-out: LE_1b (EC50, range)) is greater than 87.4 nM; in assay [2] (read-out: LE_1a (EC50, range)), greater than 87.4 nM.

Regarding `CCn1nc(O[C@@H]2C[C@H]3C(=O)N[C@]4(C(=O)NS(=O)(=O)C5CC5)C[C@H]4/C=C\CC[C@@H](C)C[C@@H](C)[C@H](NC(=O)OC(C)(C)C(F)(F)F)C(=O)N3C2)c2ccccc2c1=O` [Compound 5067, 1,1,1-trifluoro-2-methylpropan-2-yl((2R,6S,7R,9R,13aS,14aR,16aS,Z)-14a-((cyclopropylsulfonyl)carbamoyl)-2-((3-ethyl-4-oxo-3,4-dihydrophthalazin-1-yl)oxy)-7,9-dimethyl-5,16-dioxo-1,2,3,5,6,7,8,9,10,11,13a,14,14a,15,16,16a-hexadecahydrocyclopropa[e]pyrrolo[1,2-a][1,4]diazacyclopentadecin-6-yl)carbamate], the EC50 in assay [1] (read-out: LE_1b (EC50, range)) lay in the range of 4.82 to 103 nM; in assay [2] (read-out: LE_1a (EC50, range)), 4.82 to 103 nM.

Take `[2H]C([2H])([2H])C(OC(=O)N[C@@H]1C(=O)N2C[C@H](Oc3nn(CC)c(=O)c4ccccc34)C[C@H]2C(=O)N[C@]2(C(=O)NS(=O)(=O)C3CC3)C[C@H]2/C=C\CC[C@H](C)C[C@H]1C)(C([2H])([2H])[2H])C(F)(F)F` [Compound 5068]: the EC50 in assay [1] (read-out: LE_1b (EC50, range)) is greater than 87.4 nM; in assay [2] (read-out: LE_1a (EC50, range)), greater than 87.4 nM.

Regarding `[2H]C([2H])([2H])C(OC(=O)N[C@@H]1C(=O)N2C[C@H](Oc3nn(CC)c(=O)c4ccccc34)C[C@H]2C(=O)N[C@]2(C(=O)NS(=O)(=O)C3CC3)C[C@H]2/C=C\CC[C@@H](C)C[C@H]1C)(C([2H])([2H])[2H])C(F)(F)F` [Compound 5069], the EC50 in assay [1] (read-out: LE_1b (EC50)) is 7.21 nM; in assay [1] (read-out: LE_1b (EC50, range)), 4.82 to 103 nM; in assay [2] (read-out: LE_1a (EC50)), 14.9 nM; in assay [2] (read-out: LE_1a (EC50, range)), 4.82 to 103 nM.
